In patent publication US20110016537A1, “Cellular model of tauopathies for lead identification and drug discovery” (Georg-August-Universitat Gottingen Stifung offentl, priority 2003, published 2011):

Legend:
[1] = system: SHSY5Y neuroblastoma cells; assay: Apoptosis detection (TUNEL, activated caspase-3 immunolabeling) in SHSY5Y cells; type: cell-based, human; conditions: for cells showing signs of apoptosis (TUNEL): 48 h. post transfection
Source text: (§1) In order to analyse apoptosis induction in SHSY5Y neuroblastoma cells transfected with wild-type and triple mutant tau, the TUNEL method was used to label fragmented nuclear DNA, a characteristic marker of apoptosis. This was combined with the assessment of a second pathomorphological criteria: shrunken cell body with sparse cytosol and rounded cell morphology. Such a combination of criteria is considered sufficient to identify positively the occurrence of apoptosis (Stadelmann and Lassmann (2000) Cell Tissue Res. 301, 19-31). Since 48 hours after transfection a significant decrease in cell number and apparent cell degeneration is observed, this timepoint was chosen for the comparative analysis. At this timepoint the mode of degeneration, if apoptotic, should have been obvious. […] In FIG. 5a, apoptotic and non-apoptotic M123-transfected cells are shown, as well as a positive 50 nM staurosporin-treated neuroblastoma control. […] Activated caspase-3 immunolabeling, however, detected 18.66±0.93% apoptotic cells in M123 transfected neuroblastoma cells vs. 3.62±1.87% in wild-type transfected cells (p<0.01, Mann-Whitney U-test). The reason for this atypical apoptosis presentation in our system is unknown and awaits further elucidation. Next, in order to assess the real biological significance of apoptosis in the process of cell elimination, specific cell-permeable caspase-3 inhibitor and cytochrome c release inhibitor (both from Calbiochem, Germany) were used. Cells were treated 24 h. post transfection immediately after counting their reference number and incubated with apoptosis inhibitors until 60 h. post transfection in order to cover the time window with the highest decrease in cell number. […]

CHO cells [2] = assay: Morphological aggregate formation after transfection in CHO cells; type: cell-based, Chinese hamster; conditions: 24 hrs post transfection
Description: On the contrary—in areas with bulky aggregation a deficit of the normal cytoskeletal configuration was observed. In order to visualize a difference in the biophysical properties of tau and aggregating mutants, FRAP (fluorescent recovery after photobleaching) analysis was performed in CHO-cells 24 hours after transfection, using wild-type tau and the triple (M123) mutant. Tau tagged with GFP represents a perfect tool for aggregation examination in living cells in real time. Apparent differences were found between wild-type tau and the triple mutant.
Transfection of cells was performed, using the Effectene Transfection Kit (Qiagen, Germany) according to the manufacturers instructions. Following addition of 4-8 μl enhancer solution, 0.5-1 μg DNA were incubated with 10 μl Effectene and 85 μl transfection buffer. All plasmids were purified using EndoFree Maxi Kit (Qiagen, Germany).
Confocal imaging was performed with a Leica TCS SP2 confocal system fitted with an AOBS (acousto-optical beam splitter) (Leica, Germany). The objectives used were 63× water or oil immersion; adjustments were as follows: Beam Expander 3, PMT—600-700 V, pinhole 1-1.4 airy disc, zoom—variable. Luminophore excitation was performed with an Argon-ion laser at 488 nm (for GFP), GreNe laser at 543 nm (for Cy3) and HeNe 643 nm (for Cy5).

[3] = system: SHSY5Y neuroblastoma cells; assay: Phosphoepitope immunocytochemistry (AT8, AT100, AT180) in SHSY5Y neuroblastoma cells; type: cell-based, human
Description: In order to examine the neurotoxicity of the mutant tau variants in human neuronal cell line, SHSY5Y neuroblastomas were used and the cell number of each preparation at 48 and 72 hours post transfection was normalized to the cell number in the same dish at 24 hours. […] The same effect was observed by the double mutants. Further, the presence of two specific pathological phosphoepitopes was tested using phosphospecific antibodies—AT8 (S202/T205 specific) and AT100 (T212/S214), the latter being exclusively specific for Alzheimer's disease NFTs and generally considered as the only AD-specific antibody by experts in the field of neuropathology. […] In the mutants (especially in the double and triple mutants) there was a very strong AT8 labeling, reaching 83.24±5.45% in M123 (FIG. 4c). […] This was accompanied by early phosphorylation, colocalizing with the initial tau aggregates. […] This mutant completely lacked a fragment which contains most phosphorylation sites of the projection domain (including the corresponding sites for AT8, AT100, AT180, AT270), thus confirming the independence of aggregation and phosphorylation. […] Another phosphoepitope that is highly specific for AD—T212/S214 (recognized by AT100 antibody), was present especially in double and triple mutants (FIG. 4d). In contrast to AT8, this immunolabeling was not observed in all aggregates, but only in those with bulky rounded or oval shape. […] Obviously, the formation of the T212/S214 phosphoepitope requires, apart from S202/T205 phosphoepitope formation (Schneider et al. (1999) Biochemistry 38, 3549-3558), also a specific conformational modification, apparently achieved with increase of mutant epitope number. In the M123 mutant 22.13±2.87% were also AT180 immunopositive (phosphoepitope T231) vs. none in wild-type tau transfectants (not shown). In order to assess the relative contribution of the aggregation, S202/T205 and T212/S214 phosphorylation to cell toxicity, multiple correlation analyses were performed. […]

CHO cells [4] = assay: AT8-detected phosphorylation in CHO cells; type: cell-based, Chinese hamster; conditions: CHO cells (data not shown)
[5] = system: SHSY5Y neuroblastoma cells; assay: Cell survival of M123-transfected SHSY5Y cells with apoptosis inhibitors; type: cell-based, human; conditions: inhibitors on M123-transfected cells from 24 h. until 60 h. post transfection
Source text: as §1, with “elucidation.” for “elucidation. Next, in order to assess the real biological significance of apoptosis in the process of cell elimination, specific cell-permeable caspase-3 inhibitor and cytochrome c release inhibitor (both from Calbiochem, Germany) were used. Cells were treated 24 h. post transfection immediately after counting their reference number and incubated with apoptosis inhibitors until 60 h. post transfection in order to cover the time window with the highest decrease in cell number.”

Compound | cells showing signs of apoptosis (TUNEL) [1] | formation of morphologically apparent aggregates (CHO cells [2]) | AT100 (T212/S214) immunolabeling [3] | AT180 (phosphoepitope T231) immunopositive cells [3] | AT8 (S202/T205) immunolabeled cells ([3]; 36 h. after transfection) [%] | AT8-detected phosphorylation (CHO cells [4]) | apoptotic cells by activated caspase-3 immunolabeling [1] [%] | cell survival [5] [%]
CN[C@@H]1C[C@H]2O[C@@](C)([C@@H]1OC)n1c3ccccc3c3c4c(c5c6ccccc6n2c5c31)C(=O)NC4 [staurosporin] | TUNEL-positive nuclei | – | – | – | – | – | – | –
wild-type tau: wild-type human tau 441, SEQ ID NO.:25, used as control [reference compound] | 5.97±1.54% | normal MT (microtubule) association without aggregates | did not label | none | 9.17±2.3 | only a slight pattern | 3.62±1.87 | 87.86±12.4
